In paper PMC7785020, “A unique hormonal recognition feature of the human glucagon-like peptide-2 receptor” (Cell Research, 2020):
Substitutions are numbered along the chain they refer to.

What was measured:
Parameters in all cases: WT (1–553); expressed in transfected cells
GLP-2R Y182^1.43A = target: T1, GLP-2R Y182^1.43A (Homo sapiens, UniProt O95838, Y182A); experiment: radioligand competition binding, Y182^1.43A; settings: COS-7, Y182^1.43A; [^125I]GLP-2(1–33, M10Y) 10–15 pM, 4 h, 4 °C; mean ± SEM, n ≥ 3 in duplicate
T1 sequence (O95838 1-553 Y182A): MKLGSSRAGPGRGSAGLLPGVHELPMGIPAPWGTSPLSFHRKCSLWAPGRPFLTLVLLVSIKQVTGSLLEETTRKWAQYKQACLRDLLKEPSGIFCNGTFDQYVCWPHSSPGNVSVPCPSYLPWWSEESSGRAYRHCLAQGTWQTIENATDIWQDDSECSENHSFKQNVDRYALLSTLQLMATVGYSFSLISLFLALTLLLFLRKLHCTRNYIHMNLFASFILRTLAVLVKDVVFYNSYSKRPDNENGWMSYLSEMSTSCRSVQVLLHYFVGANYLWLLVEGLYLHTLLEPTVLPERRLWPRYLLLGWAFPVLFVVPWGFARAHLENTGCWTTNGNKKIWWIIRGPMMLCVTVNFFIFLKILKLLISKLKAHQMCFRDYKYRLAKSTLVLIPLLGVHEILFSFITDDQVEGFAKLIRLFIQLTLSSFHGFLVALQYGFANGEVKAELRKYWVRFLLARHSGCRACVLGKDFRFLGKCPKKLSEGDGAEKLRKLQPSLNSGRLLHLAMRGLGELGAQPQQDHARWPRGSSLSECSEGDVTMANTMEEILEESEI
Method: (§1) A stepwise oxidation reaction was performed by addition of 6 aliquots of 5 µL ChloramineT (30 µL/mL) with a 1-min interval during constant stirring. The reaction was terminated by the addition of 400 µL phase A (0.1% trifluoracetic acid) before being fractionated into 1 mL volume by reverse-phase high-performance liquid chromatography (RP-HPLC, Waters 600 SimiPrep system) on a C18 column. The iodinated protein was […] by increasing concentrations of phase B (Acetonitrile + 0.1% TFA) and tested for competitive binding ability.
(§2) One day before transfection, the COS-7 cells were seeded in 75 cm^2 culture flasks (3 million cells/flask) in DMEM, containing 3.9 g/L NaHCO3 and supplemented with 10% FBS, 1% L-glutamine, 180 units/mL penicillin and 45 µg/mL streptomycin. After an overnight culture at 37 °C, 10% CO2 and 95% air humidity, the cells were transiently transfected with different GLP-2R constructs or pcDNA3.1 vector as previously described.[52] Following 24-h incubation, the cells were transferred to Costa® microtiter plates (150,000 cells/well, PerkinElmer) to achieve a 5%–10% specific binding. […] The cells were then washed twice in binding buffer (4 °C), lysed and counted for radioactivity using a Wallac Gamma Counter (PerkinElmer).

GLP-2R R242^ECL1E = target: T2, GLP-2R R242^ECL1E (Homo sapiens, UniProt O95838, R242E); experiment: radioligand competition binding, R242^ECL1E; settings: COS-7, R242^ECL1E; [^125I]GLP-2(1–33, M10Y) 10–15 pM, 4 h, 4 °C; n ≥ 3 in duplicate
T2 sequence (O95838 1-553 R242E): T1 sequence (O95838 1-553 Y182A) with A182Y, R242E
Method: as §1, §2

GLP-2R Y252^ECL1A = target: T3, GLP-2R Y252^ECL1A (Homo sapiens, UniProt O95838, Y252A); experiment: radioligand competition binding, Y252^ECL1A; settings: COS-7, Y252^ECL1A; [^125I]GLP-2(1–33, M10Y) 10–15 pM, 4 h, 4 °C; mean ± SEM, n ≥ 3 in duplicate
T3 sequence (O95838 1-553 Y252A): T1 sequence (O95838 1-553 Y182A) with A182Y, Y252A
Method: as §1, §2

| SMILES | % Binding of WT (GLP-2R Y182^1.43A) | % Binding of WT (GLP-2R R242^ECL1E) | % Binding of WT (GLP-2R Y252^ECL1A) |
| --- | --- | --- | --- |
| CC[C@H](C)[C@H](NC(=O)[C@H](Cc1ccccc1)NC(=O)[C@H](CC(=O)O)NC(=O)[C@H](CCCNC(=N)N)NC(=O)[C@H](C)NC(=O)[C@H](C)NC(=O)[C@H](CC(C)C)NC(=O)[C@H](CC(N)=O)NC(=O)[C@H](CC(=O)O)NC(=O)[C@H](CC(C)C)NC(=O)[C@@H](NC(=O)[C@@H](NC(=O)[C@H](CC(N)=O)NC(=O)[C@H](CCSC)NC(=O)[C@H](CCC(=O)O)NC(=O)[C@H](CC(=O)O)NC(=O)[C@H](CO)NC(=O)[C@H](Cc1ccccc1)NC(=O)[C@H](CO)NC(=O)CNC(=O)[C@H](CC(=O)O)NC(=O)[C@H](C)NC(=O)[C@@H](N)Cc1c[nH]cn1)[C@@H](C)O)[C@@H](C)CC)C(=O)N[C@@H](CC(N)=O)C(=O)N[C@@H](Cc1c[nH]c2ccccc12)C(=O)N[C@@H](CC(C)C)C(=O)N[C@H](C(=O)N[C@@H](CCC(N)=O)C(=O)N[C@H](C(=O)N[C@@H](CCCCN)C(=O)N[C@H](C(=O)N[C@H](C(=O)N[C@@H](CC(=O)O)C(=O)O)[C@@H](C)O)[C@@H](C)CC)[C@@H](C)O)[C@@H](C)CC [Human GLP-2 (1–33)] | 3.4 ± 1.0 % | N.B. | 8.3 ± 1.8 % |
| CC[C@H](C)[C@H](NC(=O)[C@H](Cc1ccccc1)NC(=O)[C@H](CC(=O)O)NC(=O)[C@H](CCCNC(=N)N)NC(=O)[C@H](C)NC(=O)[C@H](C)NC(=O)[C@H](CC(C)C)NC(=O)[C@H](CC(N)=O)NC(=O)[C@H](CC(=O)O)NC(=O)[C@H](CC(C)C)NC(=O)[C@@H](NC(=O)[C@@H](NC(=O)[C@H](CC(N)=O)NC(=O)[C@H](CCSC)NC(=O)[C@H](CCC(=O)O)NC(=O)[C@H](CC(=O)O)NC(=O)[C@H](CO)NC(=O)[C@H](Cc1ccccc1)NC(=O)[C@H](CO)NC(=O)CNC(=O)[C@H](CC(=O)O)NC(=O)CNC(=O)[C@@H](N)Cc1c[nH]cn1)[C@@H](C)O)[C@@H](C)CC)C(=O)N[C@@H](CC(N)=O)C(=O)N[C@@H](Cc1c[nH]c2ccccc12)C(=O)N[C@@H](CC(C)C)C(=O)N[C@H](C(=O)N[C@@H](CCC(N)=O)C(=O)N[C@H](C(=O)N[C@@H](CCCCN)C(=O)N[C@H](C(=O)N[C@H](C(=O)N[C@@H](CC(=O)O)C(=O)O)[C@@H](C)O)[C@@H](C)CC)[C@@H](C)O)[C@@H](C)CC [Teduglutide] | 3.2 ± 1.3 % | N.B. | 6.3 ± 1.7 % |
